{"source": "patent US20020184656A1", "about": "“In vivo assay system for screening and validation of drugs and other substances” (priority 2001, published 2002)", "key": {"[1]": {"system": "transgenic flies expressing human APC (hAPC/CBD) in developing eyes (using ey-GAL4)", "experiment": "Drug screening on human APC-induced eye phenotypes in transgenic flies (drug in fly food)", "type": "in vivo, Drosophila", "conditions": "for Total number of flies with eye phenotypes (in parenthesis: total number of flies of right genotype) / Number of flies with eye phenotypic ranks 1-5 / Number of flies with eye phenotypic ranks 6-10 / Number of flies with eye phenotypic ranks 11-15 / Number of flies with eye phenotypic ranks 16-20: Ey-GAL4, hAPC/CBD", "protocol": "Table 1 Distribution of eye phenotypes induced by hAPC/CBD in different genetic backgrounds and in the presence of various compounds and other anti-cancer drugs. Numbers are from a representative experiment. Number in parenthesis in the last column indicates total number of the flies of right genotype.\n(§1) In yet another embodiment of the present invention, LD50 is determined for each of the chemicals tested. At concentrations LD50 and below, none of the drugs induce any morphological phenotypes in wildtype flies. Thereafter, the effect of these drugs on transgenic flies expressing human APC in developing eyes (using ey-GAL4) is examined.\nEye phenotypes induced by human APC are arranged in the order of severity from 1 to 20. Human APC in wildtype background induced phenotypes of ranks 1-9. […] WT—wild type eye.\n(§2) For drug screening, drugs (at different concentrations) were added to fly food at <50° C. and left over-night for drying. Care was taken to ensure homogenous mixing of the drug in the fly food. Blind-tests were carried out, wherein the vials with or without drugs were coded (with the help of other members of the lab). The crosses were always set-up in triplicates. The method of administering drugs described above is only an example and should not be limited to it as there can be other ways of administering drugs."}, "[2]": {"system": "Drosophila", "experiment": "LD50 determination of the drugs in flies", "type": "in vivo", "conditions": "drug in fly food", "protocol": "as §1, §2"}, "[3]": {"conditions": "500 micrograms/ml fly food, 59 flies of right genotype"}, "[4]": {"conditions": "200 micrograms/ml fly food, 61 flies of right genotype"}, "[5]": {"conditions": "200 microgram/ml fly food, 121 flies of right genotype"}, "[6]": {"conditions": "50 micrograms/ml fly food, 47 flies of right genotype"}}, "data": [{"smiles": "CN1C(C(=O)Nc2ccccn2)=C(O)c2ccccc2S1(=O)=O", "note": "[Pyroxicam]", "values": [{"measurement": "Total number of flies with eye phenotypes (in parenthesis: total number of flies of right genotype)", "setting": "[1]; 500 micrograms/ml fly food", "result": "21(59)"}, {"measurement": "Number of flies with eye phenotypic ranks 1-5", "setting": "[1]; [3]", "result": 11}, {"measurement": "Number of flies with eye phenotypic ranks 6-10", "setting": "[1]; [3]", "result": 7}, {"measurement": "Number of flies with eye phenotypic ranks 11-15", "setting": "[1]; [3]", "result": 1}, {"measurement": "Number of flies with eye phenotypic ranks 16-20", "setting": "[1]; [3]", "result": 2}]}, {"smiles": "CC(=O)Oc1ccccc1C(=O)O", "note": "[aspirin]", "values": [{"measurement": "Total number of flies with eye phenotypes (in parenthesis: total number of flies of right genotype)", "setting": "[1]; 200 micrograms/ml fly food", "result": "19(61)"}, {"measurement": "Number of flies with eye phenotypic ranks 1-5", "setting": "[1]; [4]", "result": 13}, {"measurement": "Number of flies with eye phenotypic ranks 6-10", "setting": "[1]; [4]", "result": 4}, {"measurement": "Number of flies with eye phenotypic ranks 11-15", "setting": "[1]; [4]", "result": 2}]}, {"smiles": "COc1ccc2c(c1)c(CC(=O)O)c(C)n2C(=O)c1ccc(Cl)cc1", "note": "[Indomethacin]", "values": [{"measurement": "Total number of flies with eye phenotypes (in parenthesis: total number of flies of right genotype)", "setting": "[1]; 200 microgram/ml fly food", "result": "47(121)"}, {"measurement": "Number of flies with eye phenotypic ranks 1-5", "setting": "[1]; [5]", "result": 12}, {"measurement": "Number of flies with eye phenotypic ranks 6-10", "setting": "[1]; [5]", "result": 8}, {"measurement": "Number of flies with eye phenotypic ranks 11-15", "setting": "[1]; [5]", "result": 16}, {"measurement": "Number of flies with eye phenotypic ranks 16-20", "setting": "[1]; [5]", "result": 11}, {"measurement": "Effect on human APC-induced eye phenotypes", "setting": "[1]; ey-GAL4, extent similar to the enhancement shown by Df(3R)by^62", "result": "enhances human APC-induced eye phenotypes"}, {"measurement": "Concentration dependence of the effect on human APC-induced eye phenotypes", "setting": "[1]; ey-GAL4, human APC", "result": "concentration dependent"}, {"measurement": "Concentration of maximum effect on human APC-induced eye phenotypes", "setting": "[1]; ey-GAL4, human APC", "result": "200 μg/ml of fly food"}, {"measurement": "Ranks of eye phenotypes observed (severity 1 to 20)", "setting": "[1]; human APC in wildtype background without drug: ranks 1-9, often resulting eyeless flies", "result": "1-20"}, {"measurement": "LD50", "setting": "[2]", "result": "250 μg/ml of fly food"}]}, {"smiles": "O=c1[nH]cc(F)c(=O)[nH]1", "note": "[5-fluorouracil]", "values": [{"measurement": "Total number of flies with eye phenotypes (in parenthesis: total number of flies of right genotype)", "setting": "[1]; 50 micrograms/ml fly food", "result": "14(47)"}, {"measurement": "Number of flies with eye phenotypic ranks 6-10", "setting": "[1]; [6]", "result": 4}, {"measurement": "Number of flies with eye phenotypic ranks 11-15", "setting": "[1]; [6]", "result": 1}, {"measurement": "Number of flies with eye phenotypic ranks 1-5", "setting": "[1]; 50 micrograms/ml fly food, 47 flies of right genotype, severity ranks 1 to 20", "result": 9}]}]}
